What was measured:
Assay type in all cases: cell-based
Conditions in all cases: 12.5 μg synthesized peptide per 1 mL cell culture medium, 24 h, 37° C.
FBN1 gene = FBN1 gene expression in human fibroblasts (CCD-966SK), qPCR
Method: (§1) In order to confirm the effect of each of the amino acid sequences on gene expression in cells, human fibroblasts (CCD-966SK) and individual peptides were co-cultured, and then, gene expression in the cells was analyzed. 11 types of synthesized peptides were respectively subjected to cell experiments. In addition, the amino acid sequences of 11 types of synthesized peptides were respectively SEQ ID NO: 1, SEQ ID NO: 2, SEQ ID NO: 3, SEQ ID NO: 4, SEQ ID NO: 5, SEQ ID NO: 6, SEQ ID NO: 7, SEQ ID NO: 8, SEQ ID NO: 9, SEQ ID NO: 10 and SEQ ID NO: 11. Hereafter, the sequence numbers SEQ ID NO: 1 to SEQ ID NO: 11 will be referred to as groups.
(§2) Cell gene expression test refers to that after the human fibroblasts (purchased from Food Industry Research and Development Institute) and samples to be tested (such as peptides or compositions) were co-cultured, then, RNA in the cells was collected for analysis. Referring to Table 3, the gene expression test groups were divided into 13 groups. 11 groups therein were peptide experiment groups (Experiment group A to Experiment group K), 1 group was a composition experiment group (Experiment group L), and 1 group was a control group. In addition, each group was co-cultured with 1×10^5 human fibroblasts in a cell culture plate containing 2 mL of cell culture medium (X-VIVO™ 10). Experiment group A to Experiment group K respectively corresponded to 11 groups of peptide experiment groups of 11 types of synthesized peptides (SEQ ID NO: 1, SEQ ID NO: 2, SEQ ID NO: 3, SEQ ID NO: 4, SEQ ID NO: 5, SEQ ID NO: 6, SEQ ID NO: 7, SEQ ID NO: 8, SEQ ID NO: 9, SEQ ID NO: 10 and SEQ ID NO: 11) prepared according to Example III. Experiment group L was a composition experiment group added with the composition. In addition, the composition was identified in Example II to be tilapia fish skin collagen peptide powder (purchased from LAPI, Italy) including […] of peptides (i.e., SEQ ID NO: 1, SEQ ID NO: 2, SEQ ID NO: 3, SEQ ID NO: 4, SEQ ID NO: 5 and SEQ ID NO: 6). No peptide or composition was added in Control group.
(§3) For each group of peptide experiment groups (corresponding to Experiment group A to Experiment group K), according to a proportion of 12.5 μg of synthesized peptide per 1 mL of cell culture medium, the human fibroblasts were cultured for 24 h at 37° C. For the composition experiment group (corresponding to Experiment group L), according to a proportion of 100 mg of composition per 1 mL of cell culture medium, the human fibroblasts were cultured for 24 h. For Control group, no peptide was added, and the human fibroblasts were cultured for 24 h in a pure cell culture medium. In addition, after culture for 24 h, the peptide-containing cell culture medium or the pure culture medium was removed from each group, and cells in each group were washed by a phosphate buffer solution (PBS) so as to remove the residual culture medium. The washed cells were spun down and were subjected to cell lysis by a cell lysis solution (purchased from Geneaid company, Taiwan). Then, RNA in each group of cells was extracted by an RNA extraction kit (purchased from Geneaid company, Taiwan). Next, the extracted RNA was subjected to inverse transcription to obtain cDNA by a cDNA synthesis reagent (purchased from Geneaid company, Taiwan). In addition, the intracellular gene expression was observed by a polymerase chain reaction (PCR) instrument using different primers (as shown in Table 3). In addition, the primers firstly reacted by a green fluorescent dye of SYBR green dye (Applied Biosystem), and quantification of gene expression was performed by a 2-ΔΔCt method. It should be noted that the gene expression in the drawings corresponding to the experiments was shown in relative fold or percentage, wherein standard deviations were calculated by an STDEV formula of Excel software, and statistically significant differences were analyzed by one-tailed student t-test in the Excel software. […]

TIMP1 gene = TIMP1 gene expression in human fibroblasts (CCD-966SK), qPCR
Method: as §1, §2
as §3, with “The washed cells were spun down and were subjected to cell lysis by a cell lysis solution (purchased from Geneaid company, Taiwan). Then, RNA in each group of cells was extracted by an RNA extraction kit (purchased from Geneaid company, Taiwan). Next, the extracted RNA was subjected to inverse transcription to obtain cDNA by a cDNA synthesis reagent (purchased from Geneaid company, Taiwan). In addition, the intracellular gene expression was observed by a polymerase chain reaction (PCR) instrument using different primers (as shown in Table 3).” left out

LOX gene = LOX gene expression in human fibroblasts (CCD-966SK), qPCR
Method: as §1
as §2, with “No peptide or composition was added in Control group.” left out
(§4) For each group of peptide experiment groups (corresponding to Experiment group A to Experiment group K), according to a proportion of 12.5 μg of synthesized peptide per 1 mL of cell culture medium, the human fibroblasts were cultured for 24 h at 37° C. […] In addition, the primers firstly reacted by a green fluorescent dye of SYBR green dye (Applied Biosystem), and quantification of gene expression was performed by a 2-ΔΔCt method. It should be noted that the gene expression in the drawings corresponding to the experiments was shown in relative fold or percentage, wherein standard deviations were calculated by an STDEV formula of Excel software, and statistically significant differences were analyzed by one-tailed student t-test in the Excel software. […]

MMP2 gene = MMP2 gene expression in human fibroblasts (CCD-966SK), qPCR
Method: as §1, with “groups. […]” for “groups.”
as §4

| Substance | FBN1 gene expression level, folds of Control group (FBN1 gene) | TIMP1 gene expression level, folds of Control group (TIMP1 gene) | LOX gene expression level, folds of Control group (LOX gene) | MMP2 gene expression inhibition (MMP2 gene) | MMP2 gene expression percentage (Control group regarded as 100%) (MMP2 gene) |
| --- | --- | --- | --- | --- | --- |
| ALVQNREGP (listed as Oreochromis mossambicus) [SEQ ID NO: 6, synthesized peptide of tilapia skin, Collagen, type VII] | about 5 folds | about 3 folds | – | – | – |
| AVNGLTLAGGRGLNTGAALT (listed as Oreochromis mossambicus) [SEQ ID NO: 5, synthesized peptide of tilapia skin, Collagen, type VI] | about 6 folds | – | about 2.5 folds | – | – |
| DQGIRLL (listed as Oreochromis mossambicus) [SEQ ID NO: 10, synthesized peptide of Plectin b] | about 6 folds | – | – | – | – |
| GLPGVQGNI (listed as Oreochromis mossambicus) [SEQ ID NO: 2, synthesized peptide of tilapia skin, Collagen, type IV] | about 6 folds | about 7.8 folds | about 5.7 folds | – | – |
| IGIFGQTGPPGE (listed as Oreochromis mossambicus) [SEQ ID NO: 3, synthesized peptide of tilapia skin, Collagen, type IV] | about 3 folds | – | – | about 60% | about 40% |
| MFGKDVW (listed as Oreochromis mossambicus) [SEQ ID NO: 9, synthesized peptide of N-acetylglucosamine-1-phosphotransferase subunits alpha/beta] | about 4 folds | about 3 folds | about 2.5 folds | – | – |
| NGLPGSPGLP GRQGE (NGLPGSPGLPGRQGE; listed as Oreochromis mossambicus) [SEQ ID NO: 7, synthesized peptide of tilapia skin, Collagen, type XII] | about 5 folds | – | – | – | – |
| PGPMGPMGINGA (listed as Oreochromis mossambicus) [SEQ ID NO: 4, synthesized peptide of tilapia skin, Collagen, type V] | about 16 folds | – | – | – | – |
| PGQPGLSGVPGADGKPGLPGP (listed as Oreochromis mossambicus) [SEQ ID NO: 8, synthesized peptide of tilapia skin, Collagen, type XVIII] | about 9 folds | about 5 folds | – | – | – |
| QRGEPGPNGAV (listed as Oreochromis mossambicus) [SEQ ID NO: 11, synthesized peptide of tilapia skin, Procollagen, type I] | about 5 folds | about 5 folds | about 3 folds | – | – |

Reference: patent US11400138B2, “Method for improving skin condition with bioactive compound” (TCI CO., LTD., priority 2020, dated 2022)
